In patent US20220387491A1, “METHODS OF MAKING CELLULAR THERAPIES” (Secura Bio, Inc., priority 2019, published 2022):
Entries after “also recorded” stand apart in the source; their conditions may differ.

Tests used:
[1] = read-out: Cmax (ss); reported clinical plasma exposure at recommended phase II dose (RP2D); cited from earlier work
PI3K-γ [2] = molecular target: T1, PI3K-γ (Homo sapiens, UniProt P48736); assay: Whole blood assay, p-Akt S473 in fMLP-stimulated monocytes; assay type: cell-based; design: from tissue; host or cells: whole blood; fMLP-stimulated monocytes (gated by flow cytometry); conditions: for PI3K-γ inhibition at clinically achievable exposures (in words): whole blood assay related to clinical plasma exposure
Protocol: Briefly, LPS-stimulated monocytes and fMLP-stimulated monocytes were cultured in the presence of 2 μg/mL LPS or 50 ng/mL fMLP, respectively. After 10 minutes of stimulation, red blood cells were lysed and remaining leukocytes were fixed, permeabilized and stained with CD45, CD3, CD45RA, CD14, CD19 and p-Akt S473 (D9E clone) antibodies. […] Monocytes were gated and the percentage of positive p-Akt monocytes was measured. IC50 dose curves were generated and IC50 values calculated.
(§1) Whole blood potencies against PI3K-δ and PI3K-γ were measured through inhibition of p-Akt in LPS-stimulated monocytes and fMLP-stimulated monocytes, respectively. Whole blood assay IC50 values, which encompass enzyme inhibition, cell penetration, and protein binding of inhibitors, are related to reported clinical plasma exposures of each agent at recommended phase II dose (RP2D).

[3] = test system: T cells from human donors or CLL patients; assay: Ex vivo T cell expansion; assay type: cell-based
PI3K-δ [4] = molecular target: T2, PI3K-δ (Homo sapiens, UniProt O00329); assay: Whole blood assay, p-Akt S473 in LPS-stimulated monocytes; assay type: cell-based; design: from tissue; host or cells: whole blood; LPS-stimulated monocytes (gated by flow cytometry); conditions: for PI3K-δ inhibition at clinically achievable exposures (in words): whole blood assay related to clinical plasma exposure
Protocol: (§2) The relative effects of different PI3K inhibitors on PI3K-δ and PI3K-γ cell signaling downstream of LPS and fMLP, respectively, were assessed in whole blood using phosphorylated (p)-Akt serine-473 as the readout. Briefly, LPS-stimulated monocytes and fMLP-stimulated monocytes were cultured in the presence of 2 μg/mL LPS or 50 ng/mL fMLP, respectively. After 10 minutes of stimulation, red blood cells were lysed and remaining leukocytes were fixed, permeabilized and stained with CD45, CD3, CD45RA, CD14, CD19 and p-Akt S473 (D9E clone) antibodies. Data was acquired on an LSRII cytometer (BD Biosciences) equipped with at least 4 lasers (405, 488, 561, and 640 nm). Monocytes were gated and the percentage of positive p-Akt monocytes was measured. IC50 dose curves were generated and IC50 values calculated.
as §1

PI3K-δ [5] = molecular target: T2, PI3K-δ; assay: PI3K-δ target inhibition in follicular lymphoma patients after oral dosing; assay type: in vivo; design: from tissue; host or cells: whole blood of follicular lymphoma patients after oral dosing
Protocol: as §2
(§3) At cycle 2 Day 1 pre, a timepoint corresponding to the 12 hour point when the next dose is to be given, the degree of inhibition is decreased; however, inhibition is re-established with the administration of the next dose.

CD19 CAR-T cells = assay: CAR-T-mediated cytotoxicity against tumor cells; assay type: cell-based; conditions: addition during generation of CD19 CAR-T cells
Text: (§4) These early memory T cells populations have been associated with CAR-T cells that induce complete remissions.

PI3K-γ [6] = molecular target: T1, PI3K-γ; assay: PI3K-γ target inhibition in follicular lymphoma patients after oral dosing; assay type: in vivo; design: from tissue; host or cells: whole blood of follicular lymphoma patients after oral dosing
Protocol: as §2, §3
Accordingly, BID should then re-establish inhibition in this 60-70% range.

T cells = assay: Expression of T cell exhaustion markers (TIM-3, LAG-3) by flow cytometry; assay type: cell-based, human
Text: as §4

[7] = test system: T cells taken from CLL patients; assay: Proportion of early memory T cell populations; assay type: cell-based, human; conditions: 200 nM; compared with standard culture conditions
Text: as §4

T1 sequence (P48736 whole entry): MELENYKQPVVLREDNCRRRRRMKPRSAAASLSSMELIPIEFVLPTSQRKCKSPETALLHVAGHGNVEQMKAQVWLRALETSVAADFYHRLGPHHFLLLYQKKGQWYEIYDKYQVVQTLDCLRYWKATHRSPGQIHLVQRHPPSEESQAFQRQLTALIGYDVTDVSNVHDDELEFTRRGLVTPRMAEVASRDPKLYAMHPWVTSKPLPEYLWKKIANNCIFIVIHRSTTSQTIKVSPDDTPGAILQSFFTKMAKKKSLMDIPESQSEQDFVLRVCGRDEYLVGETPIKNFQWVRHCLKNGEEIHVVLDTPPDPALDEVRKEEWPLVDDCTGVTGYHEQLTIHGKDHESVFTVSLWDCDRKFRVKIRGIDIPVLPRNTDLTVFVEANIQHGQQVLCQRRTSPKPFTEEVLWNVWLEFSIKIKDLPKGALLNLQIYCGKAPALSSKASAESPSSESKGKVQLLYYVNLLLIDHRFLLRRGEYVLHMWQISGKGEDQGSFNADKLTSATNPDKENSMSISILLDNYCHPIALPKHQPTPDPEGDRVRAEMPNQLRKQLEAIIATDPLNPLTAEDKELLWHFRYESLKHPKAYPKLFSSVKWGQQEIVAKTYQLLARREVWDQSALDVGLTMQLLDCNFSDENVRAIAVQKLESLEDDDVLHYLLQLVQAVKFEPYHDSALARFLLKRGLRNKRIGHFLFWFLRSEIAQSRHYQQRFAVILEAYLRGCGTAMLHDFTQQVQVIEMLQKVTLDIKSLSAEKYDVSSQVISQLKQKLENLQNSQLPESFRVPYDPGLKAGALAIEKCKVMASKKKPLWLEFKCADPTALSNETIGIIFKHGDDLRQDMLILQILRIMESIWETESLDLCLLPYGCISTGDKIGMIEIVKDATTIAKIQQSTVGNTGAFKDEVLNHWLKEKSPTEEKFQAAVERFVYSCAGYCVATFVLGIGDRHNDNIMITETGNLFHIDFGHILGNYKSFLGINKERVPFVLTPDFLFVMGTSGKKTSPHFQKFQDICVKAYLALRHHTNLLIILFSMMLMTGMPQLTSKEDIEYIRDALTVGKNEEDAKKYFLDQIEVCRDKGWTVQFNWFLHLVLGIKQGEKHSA
T2 sequence (O00329 whole entry): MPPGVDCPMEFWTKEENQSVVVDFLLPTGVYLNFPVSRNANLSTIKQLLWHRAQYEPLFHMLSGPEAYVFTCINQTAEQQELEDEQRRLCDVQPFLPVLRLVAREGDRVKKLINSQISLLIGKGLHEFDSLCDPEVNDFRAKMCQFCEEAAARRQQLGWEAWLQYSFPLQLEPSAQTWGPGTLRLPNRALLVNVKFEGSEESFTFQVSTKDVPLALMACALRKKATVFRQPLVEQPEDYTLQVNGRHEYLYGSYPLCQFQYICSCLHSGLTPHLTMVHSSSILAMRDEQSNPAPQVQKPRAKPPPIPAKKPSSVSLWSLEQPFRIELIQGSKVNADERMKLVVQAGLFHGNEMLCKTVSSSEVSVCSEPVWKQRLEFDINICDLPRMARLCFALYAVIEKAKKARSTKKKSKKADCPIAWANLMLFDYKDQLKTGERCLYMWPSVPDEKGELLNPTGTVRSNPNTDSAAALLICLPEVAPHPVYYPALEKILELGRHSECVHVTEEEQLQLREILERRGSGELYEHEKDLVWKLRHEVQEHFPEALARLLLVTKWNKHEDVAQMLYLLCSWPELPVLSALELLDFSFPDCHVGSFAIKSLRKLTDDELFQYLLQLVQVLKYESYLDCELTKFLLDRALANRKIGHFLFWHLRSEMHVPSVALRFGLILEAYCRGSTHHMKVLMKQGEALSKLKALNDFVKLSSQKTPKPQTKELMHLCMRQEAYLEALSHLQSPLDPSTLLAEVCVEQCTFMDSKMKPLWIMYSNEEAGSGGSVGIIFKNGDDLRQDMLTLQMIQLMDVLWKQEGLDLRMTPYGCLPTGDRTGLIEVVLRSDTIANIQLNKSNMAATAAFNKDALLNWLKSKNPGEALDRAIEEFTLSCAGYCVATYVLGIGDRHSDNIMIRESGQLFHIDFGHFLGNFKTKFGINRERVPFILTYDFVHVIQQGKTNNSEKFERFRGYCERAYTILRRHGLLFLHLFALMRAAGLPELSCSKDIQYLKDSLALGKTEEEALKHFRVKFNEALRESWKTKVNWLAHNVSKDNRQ
T2 sequence (P27986 whole entry partner): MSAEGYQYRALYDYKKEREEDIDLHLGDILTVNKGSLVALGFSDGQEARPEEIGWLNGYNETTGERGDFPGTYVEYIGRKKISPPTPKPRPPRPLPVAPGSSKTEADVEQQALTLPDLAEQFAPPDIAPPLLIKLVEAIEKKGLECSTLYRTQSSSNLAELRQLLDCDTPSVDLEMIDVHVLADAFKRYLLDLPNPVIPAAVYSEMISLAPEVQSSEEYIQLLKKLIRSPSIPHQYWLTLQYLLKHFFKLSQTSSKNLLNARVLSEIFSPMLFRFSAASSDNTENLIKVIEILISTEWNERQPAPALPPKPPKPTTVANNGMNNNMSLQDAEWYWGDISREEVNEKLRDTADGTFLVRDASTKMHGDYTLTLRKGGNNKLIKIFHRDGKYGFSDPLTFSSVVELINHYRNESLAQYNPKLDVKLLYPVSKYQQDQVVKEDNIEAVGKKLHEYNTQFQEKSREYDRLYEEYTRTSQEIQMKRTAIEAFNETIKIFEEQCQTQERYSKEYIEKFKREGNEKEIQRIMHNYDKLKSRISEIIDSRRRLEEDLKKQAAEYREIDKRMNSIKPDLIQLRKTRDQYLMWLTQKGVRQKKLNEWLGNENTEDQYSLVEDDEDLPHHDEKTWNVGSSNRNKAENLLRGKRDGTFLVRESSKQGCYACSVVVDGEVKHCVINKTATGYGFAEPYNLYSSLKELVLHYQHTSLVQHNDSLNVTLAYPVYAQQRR

| PI3K-γ inhibition at clinically achievable exposures (in words) (PI3K-γ [2]) | PI3K-δ inhibition at clinically achievable exposures (in words) (PI3K-δ [4]) | Compound | Cmax [1] | concentration of maximal effect on T cell expansion [3] | further results |
| --- | --- | --- | --- | --- | --- |
| – | – | CC(C)Oc1ccc(-c2nn([C@@H](C)c3oc4ccc(F)cc4c(=O)c3-c3cccc(F)c3)c3ncnc(N)c23)cc1F [Umbralisib] | 9.2 µM | – | IC50 (PI3K-γ [2]): 55 ± 16 µM |
| did not meaningfully inhibit | did not meaningfully inhibit | CC[C@H](Nc1ncnc2nc[nH]c12)c1oc2ccccc2c(=O)c1-c1cccc(F)c1 [Tenalisib, (S)-2-(1-((7H-purin-6-yl)amino)propyl)-3-(3-fluorophenyl)-4H-chromen-4-one] | – | – | PI3Kγ IC50 (PI3K-γ [2]; whole blood, inhibition of p-Akt in fMLP-stimulated monocytes): No inhibition; IC50 (PI3K-δ [4]; whole blood, inhibition of p-Akt in LPS-stimulated monocytes, read-out: PI3Kδ IC50): > 50 µM |
| inhibited both PI3K-δ and PI3K-γ | inhibited both PI3K-δ and PI3K-γ | C[C@H](Nc1ncnc2[nH]cnc12)c1cc2cccc(Cl)c2c(=O)n1-c1ccccc1 [Duvelisib, (S)-3-(1-((9H-purin-6-yl)amino)ethyl)-8-chloro-2-phenylisoquinolin-1(2H)-one] | 2.5 µM | 0.04 µM | degree of inhibition of PI3K-δ (PI3K-δ [5]; cycle 2 Day 1 pre (12 hour point before next dose)): decreased; inhibition at 25 mg (PI3K-δ [5]; human, follicular lymphoma patients, 25 mg oral, 1 and 4 hours after dosing): 90 to 95%; increase in T cell expansion ([3]; T cells from human donors or CLL patients): 3 to 4 fold; cytotoxic activity of CAR-T cells to kill tumor cells (CD19 CAR-T cells): increases; degree of inhibition of PI3K-γ (PI3K-γ [6]; cycle 2 Day 1 pre): decreased; inhibition of PI3K-γ (PI3K-γ [6]; follicular lymphoma patients, 25 mg, 1 and 4 hours): 60-70%; expression of T cell exhaustion markers (TIM-3, LAG-3) (T cells): reduces expression; proportion of early memory T cell populations [7]: increases the proportion of early memory T cell populations |
| – | not PI3K-δ | C[C@H](NC(=O)c1c(N)nn2cccnc12)c1cc2cccc(C#Cc3cnn(C)c3)c2c(=O)n1-c1ccccc1 [IPI-549, 2-amino-N-[(1S)-1-[8-[2-(1-methylpyrazol-4-yl)ethynyl]-1-oxo-2-phenylisoquinolin-3-yl]ethyl]pyrazolo[1,5-a]pyrimidine-3-carboxamide] | 9.1 µM | – | – |

| Compound | PI3K-γ inhibition at clinically achievable exposures (in words) (PI3K-γ [2]) | PI3K-δ inhibition at clinically achievable exposures (in words) (PI3K-δ [4]) | Cmax [1] | concentration of maximal effect on T cell expansion [3] | further results |
| --- | --- | --- | --- | --- | --- |
| CC[C@H](Nc1ncnc2[nH]cnc12)c1nc2cccc(F)c2c(=O)n1-c1ccccc1 [Idelalisib, (S)-2-(1-(9H-purin-6-ylamino)propyl)-5-fluoro-3-phenylquinazolin-4(3H)-one] | not sufficient to inhibit PI3K-γ | single isoform inhibition; also recorded: sufficient to inhibit PI3K-δ | 4.8 µM | 1 µM | – |
